± gives the expanded uncertainty stated by the source.
How the values were obtained:
[1] = DTA
[2] = Molar enthalpy of transition or fusion; details: DSC

Triple point temperature ([1]; Crystal) [K] | Molar enthalpy of transition or fusion ([2]; Crystal) [kcal/mol] | Triple point temperature ([1]; Crystal 1) [K] | Triple point temperature ([1]; Crystal 2) [K] | Molar enthalpy of transition or fusion ([2]; Crystal 1) [kcal/mol] | Molar enthalpy of transition or fusion ([2]; Crystal 2) [kcal/mol] | Structure (SMILES)
445.65 ± 2.5 | 5.68 ± 0.311 | – | – | – | – | Oc1ccc(O)cc1 [1,4-benzenediol]
405.65 ± 2.5 | 10.7 ± 0.574 | – | – | – | – | O=C(O)CCCCCCCCC(=O)O [1,10-decanedioic acid]
390.15 ± 3 | 9.54 ± 0.502 | – | – | – | – | OC[C@@H](O)[C@@H](O)CO [meso-1,2,3,4-butanetetrol]
368.15 ± 5 | 3.05 ± 0.177 | – | – | – | – | CNC(N)=O [methylurea]
– | – | 335.65 ± 2.5 | 330.65 ± 2.5 | 15.3 ± 0.86 | 8.49 ± 0.478 | CCCCCCCCCCCCCCCCCCCCCCCCCCCC [octacosane]
369.65 ± 2.5 | 5.02 ± 0.287 | – | – | – | – | O=C(O)CCCC(=O)O [1,5-pentanedioic acid]
344.65 ± 2.5 | 10.7 ± 0.574 | – | – | – | – | OCCCCCCCCCCO [1,10-decanediol]

— the NIST ThermoML archive (doi:10.1016/j.tca.2014.09.022)
